Measurements published in PubChem BioAssay AID256 (DTP/NCI, 2004).
Several values for one entry are separate records, joined by “and”; a condition that tells them apart may be missing. Identical values can stand only once. Inconclusive results and toxic doses are left out.

System: CD2F1 mice, L1210 leukemia ip, survival T/C
Assay: NCI In Vivo Anticancer Drug Screen. Data for tumor model L1210 Leukemia (intraperitoneal) in CD2F1 (CDF1) mice
Conditions: higher = longer survival
In short: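 Transplantable tumor in mice; compound-treated vs vehicle-treated groups. Read-out = treated/control ratio of the measured endpoint.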

[1] = endpoint: mean survival time, dose: 100.0 mg/kg/injection, schedule: Q04DX003 (ip), vehicle: saline with Tween-80
[2] = endpoint: mean survival time, dose: 200.0 mg/kg/injection, schedule: Q04DX003 (ip), vehicle: saline with Tween-80
[3] = endpoint: mean survival time, dose: 400.0 mg/kg/injection, schedule: Q04DX003 (ip), vehicle: saline with Tween-80
[4] = endpoint: mean survival time, dose: 100.0 mg/kg/injection, schedule: Q01DX009 (ip), vehicle: saline with Tween-80
[5] = endpoint: mean survival time, dose: 200.0 mg/kg/injection, schedule: Q01DX009 (ip), vehicle: saline with Tween-80
[6] = endpoint: mean survival time, dose: 6.25 mg/kg/injection, schedule: Q01DX009 (ip), vehicle: saline
[7] = endpoint: mean survival time, dose: 12.5 mg/kg/injection, schedule: Q01DX009 (ip), vehicle: saline
[8] = endpoint: mean survival time, dose: 25.0 mg/kg/injection, schedule: Q01DX009 (ip), vehicle: saline
[9] = endpoint: mean survival time, dose: 50.0 mg/kg/injection, schedule: Q01DX009 (ip), vehicle: saline

O=C1c2[nH]c3ccccc3c2CC1N1C(=O)c2ccccc2C1=O (centres undefined)
T/C [1]: 87 % of control | T/C [2]: 93 % of control | T/C [3]: 91 % of control

C=C(C)CS(=O)(=O)Cc1ccccc1
T/C (endpoint: mean survival time, dose: 50.0 mg/kg/injection, schedule: Q01DX001 (ip), vehicle: Klucel (hydroxypropylcellulose) (HPC)): 96 % of control | T/C (endpoint: mean survival time, dose: 100.0 mg/kg/injection, schedule: Q01DX001 (ip), vehicle: Klucel (hydroxypropylcellulose) (HPC)): 102 % of control | T/C (endpoint: mean survival time, dose: 200.0 mg/kg/injection, schedule: Q01DX001 (ip), vehicle: Klucel (hydroxypropylcellulose) (HPC)): 102 % of control

Cc1ccc([N+](=O)[O-])c(N)n1
T/C [4]: 96 % of control | T/C [1]: 98 % of control | T/C [5]: 86 % of control | T/C [2]: 98 % of control | T/C [3]: 100 % of control

O=C1C2=Cc3ccccc3CN2Cc2ccccc21
T/C (endpoint: mean survival time, dose: 75.0 mg/kg/injection, schedule: Q01DX001 (ip), vehicle: other): 98 % of control | T/C (endpoint: mean survival time, dose: 150.0 mg/kg/injection, schedule: Q01DX001 (ip), vehicle: other): 101 % of control

O=C(/C=C/c1ccccc1)N1CCOCC1
T/C (endpoint: mean survival time, dose: 50.0 mg/kg/injection, schedule: Q04DX003 (ip), vehicle: saline): 102 % of control | T/C (endpoint: mean survival time, dose: 100.0 mg/kg/injection, schedule: Q04DX003 (ip), vehicle: saline): 96 % of control | T/C (endpoint: mean survival time, dose: 200.0 mg/kg/injection, schedule: Q04DX003 (ip), vehicle: saline): 100 % of control

COc1nc(NC2OC(CO)C(O)C(O)C2O)c(I)c(=O)n1C (centres undefined)
T/C (endpoint: median survival time, dose: 12.5 mg/kg/injection, schedule: Q01DX005 (ip), vehicle: saline with Tween-80): 100 % of control | T/C (endpoint: median survival time, dose: 25.0 mg/kg/injection, schedule: Q01DX005 (ip), vehicle: saline with Tween-80): 100 % of control | T/C (endpoint: median survival time, dose: 50.0 mg/kg/injection, schedule: Q01DX005 (ip), vehicle: saline with Tween-80): 100 % of control | T/C (endpoint: median survival time, dose: 100.0 mg/kg/injection, schedule: Q01DX005 (ip), vehicle: saline with Tween-80): 100 % of control | T/C (endpoint: median survival time, dose: 200.0 mg/kg/injection, schedule: Q01DX005 (ip), vehicle: saline with Tween-80): 101 % of control

Nc1ncn(C2OC(COC(=O)c3ccccc3)C(OC(=O)c3ccccc3)C2OC(=O)c2ccccc2)c(=O)n1 (centres undefined)
T/C (endpoint: mean survival time, dose: 1.56 mg/kg/injection, schedule: Q01DX009 (ip), vehicle: saline): 108 % of control | T/C [6]: 164 % of control and 170 % of control | T/C [7]: 205 % of control and 227 % of control | T/C [8]: 115 % of control and 124 % of control | T/C [9]: 91 % of control and 93 % of control

CCN(C(=O)c1ccc(C(=O)N(CC)c2ccccc2)cc1)c1ccccc1
T/C [4]: 95 % of control | T/C [5]: 101 % of control | T/C (endpoint: mean survival time, dose: 400.0 mg/kg/injection, schedule: Q01DX009 (ip), vehicle: saline with Tween-80): 90 % of control

Cc1cc(SCC(=O)c2ccc(Br)cc2)cc(C)[o+]1
T/C [6]: 96 % of control and 104 % of control | T/C [7]: 102 % of control and 108 % of control | T/C [8]: 96 % of control and 108 % of control | T/C [9]: 92 % of control and 96 % of control | T/C (endpoint: mean survival time, dose: 100.0 mg/kg/injection, schedule: Q01DX009 (ip), vehicle: saline): 102 % of control | T/C (endpoint: mean survival time, dose: 200.0 mg/kg/injection, schedule: Q01DX009 (ip), vehicle: saline): 86 % of control

Clc1cc(Cl)c(C[N+]23CN4CN(CN(C4)C2)C3)cc1Cl
T/C (endpoint: mean survival time, dose: 12.5 mg/kg/injection, schedule: Q01DX009 (ip), vehicle: saline with Tween-80): 104 % of control | T/C (endpoint: mean survival time, dose: 25.0 mg/kg/injection, schedule: Q01DX009 (ip), vehicle: saline with Tween-80): 98 % of control | T/C (endpoint: mean survival time, dose: 50.0 mg/kg/injection, schedule: Q01DX009 (ip), vehicle: saline with Tween-80): 92 % of control and 109 % of control | T/C [4]: 104 % of control and 112 % of control | T/C [1]: 106 % of control | T/C [5]: 108 % of control | T/C [2]: 104 % of control

Clc1nc2n[nH]nc2nc1Cl
T/C (endpoint: mean survival time, dose: 3.13 mg/kg/injection, schedule: Q01DX009 (ip), vehicle: saline): 97 % of control | T/C [6]: 100 % of control | T/C [7]: 95 % of control

O=C(O)CC(=O)O.[NH-]CC(O)C[NH-].[Pt+2]
T/C (endpoint: median survival time, dose: 20.0 mg/kg/injection, schedule: Q04DX003 (ip), vehicle: water): 96 % of control | T/C (endpoint: median survival time, dose: 40.0 mg/kg/injection, schedule: Q04DX003 (ip), vehicle: water): 110 % of control

COC(=O)/C([O-])=C(\C(=O)OC)[n+]1cc(Br)cc2ccccc21
T/C (endpoint: mean survival time, dose: 100.0 mg/kg/injection, schedule: Q04DX002 (ip), vehicle: saline with Tween-80): 101 % of control | T/C (endpoint: mean survival time, dose: 200.0 mg/kg/injection, schedule: Q04DX002 (ip), vehicle: saline with Tween-80): 104 % of control
